Experimental data: PubChem BioAssay AID652069 (The Scripps Research Institute Molecular Screening Center, 2013)
The source made the active and inactive calls.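 How the source made its calls: active means growth ratio of SRC-3 knockout over parental cells of 1.2 or more, reached at 10 µM or lower; inactive means the rest.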

The compounds below were run on HeLa SRC-3 KO vs WT growth ratio, MTT, 5 d (assay: growth ratio of SRC-3 knockout versus wild-type cells – cell-based, HeLa, zinc finger nuclease knockout, MTT, selectivity assay for SRC-1/SRC-3 inhibitor project, late-stage follow-up (AID 652069)). Settings: at 10 µM (top of the series).
With `COc1ccc(/C=C2/SC(=S)N(CCC(=O)O)C2=O)cc1` the KO/WT growth ratio, higher = selective was 1.07 (inactive). In the case of `CCc1ccc(/C=C2\SC(=S)N(CCCC(=O)NCCCN3CCOCC3)C2=O)cc1`, the KO/WT growth ratio, higher = selective is reported as 0.974 (inactive). With `COc1cc(N=c2c([N+](=O)[O-])nn(-c3ccc4c(c3)OCCO4)n2O)cc(OC)c1` the KO/WT growth ratio, higher = selective was 1.09 (inactive). `O=[N+]([O-])c1cccc2c1ccc1ncccc12` was tested, and the KO/WT growth ratio, higher = selective was 1.09 (inactive). `CCOC(=O)C(=CNc1ccc(NC2=NCC(C)S2)cc1)C(=O)OCC` (stereo unspecified) was tested, and the KO/WT growth ratio, higher = selective was 1 (inactive). For `O=[N+]([O-])c1nn(-c2ccc3c(c2)OCCO3)n(O)c1=Nc1ccc(Cl)cc1`, the KO/WT growth ratio, higher = selective was 0.995 (inactive). For `c1ccc(-c2nnc(-c3ccccn3)nc2NC2CCCCC2)cc1`, the KO/WT growth ratio, higher = selective was 1.01 (inactive). `O=C(COC(=O)c1ccc[nH]c1=O)Nc1ccc(N2CCCCC2)cc1` was tested, and the KO/WT growth ratio, higher = selective was 0.954 (inactive). In the case of `COC(=O)c1c(C)n(-c2ccc(OC)cc2)c2ccc(O)cc12`, the KO/WT growth ratio, higher = selective is reported as 1.01 (inactive). `Cc1c(/C(O)=C2/C(=O)C(=O)N(Cc3cccnc3)C2c2ccccn2)cnn1-c1ccccc1` (stereo unspecified) was tested, and the KO/WT growth ratio, higher = selective was 0.966 (inactive). With `CC(=O)N1CCN(c2ncnc3ccccc23)CC1` the KO/WT growth ratio, higher = selective was 0.988 (inactive). With `Cc1c(CC(=O)NCCCC(=O)O)c(=O)oc2cc3c(cc12)CCC(C)(C)O3` the KO/WT growth ratio, higher = selective was 1.04 (inactive). Compound `O=C(CCl)N1N=C(c2ccco2)CC1c1ccco1` (stereo unspecified) has a KO/WT growth ratio, higher = selective of 1.42. In the case of `Cc1ccc(N=c2c([N+](=O)[O-])nn(-c3ccc4c(c3)OCCO4)n2O)c(Cl)c1`, the KO/WT growth ratio, higher = selective is reported as 1.06 (inactive). `O=C(Nc1nc(-c2ccccn2)cs1)c1cccc(S(=O)(=O)N2CCOCC2)c1` showed a KO/WT growth ratio, higher = selective of 1.23. In the case of `O=C(CCCc1nc(-c2ccccc2Cl)no1)NC1CCCC1`, the KO/WT growth ratio, higher = selective is reported as 1.06 (inactive). For `Cc1cc(/C=C2\Cc3ccccc3C2=O)c(C)n1-c1ccccc1`, the KO/WT growth ratio, higher = selective was 1.01 (inactive). `Cn1nc(C(F)(F)F)c(C#N)c1N1CCN(c2ccc(F)cc2)CC1` was tested, and the KO/WT growth ratio, higher = selective was 0.976 (inactive). With `CC(=O)/C(N=Nc1ccc2c(c1)OCCO2)=C(/C)O` the KO/WT growth ratio, higher = selective was 1.02 (inactive). In the case of `CN(C)c1ccc(CNC(=O)CCNS(=O)(=O)c2cc(Br)cnc2N)cc1`, the KO/WT growth ratio, higher = selective is reported as 1.04 (inactive). For `Cc1cc(C)cc(N=c2c([N+](=O)[O-])nn(-c3ccc4c(c3)OCCO4)n2O)c1`, the KO/WT growth ratio, higher = selective was 0.985 (inactive). In the case of `O=[N+]([O-])c1nn(-c2ccc3c(c2)OCCO3)n(O)c1=Nc1ccccc1`, the KO/WT growth ratio, higher = selective is reported as 0.918 (inactive). `O=C1CCC2S/C(=C/Nc3ccc(C(F)(F)F)cc3)C(=O)N12` (stereo unspecified) was tested, and the KO/WT growth ratio, higher = selective was 1.02 (inactive). With `O=C(O)CN1C(=O)/C(=C\c2ccccc2OCc2ccc(Cl)cc2Cl)SC1=S` the KO/WT growth ratio, higher = selective was 1.02 (inactive). For `NC(=O)c1sc2nc3c(c(-c4ccco4)c2c1N)CCC3`, the KO/WT growth ratio, higher = selective was 1.23. `S=C(c1ccc(-c2ccccc2)cc1)N1CCOCC1` was tested, and the KO/WT growth ratio, higher = selective was 0.918 (inactive). In the case of `CCc1ccc(N=c2c([N+](=O)[O-])nn(-c3ccc4c(c3)OCCO4)n2O)cc1`, the KO/WT growth ratio, higher = selective is reported as 0.982 (inactive). In the case of `Cc1cccc(NC(=O)c2cc(Cl)ccc2[N+](=O)[O-])c1`, the KO/WT growth ratio, higher = selective is reported as 1.09 (inactive). `NS(=O)(=O)c1ccc(Nc2nc(-c3cccnc3)cs2)cc1` was tested, and the KO/WT growth ratio, higher = selective was 0.928 (inactive). `S=C(Nc1ccccc1)Nc1ccc(OCc2ccc(Cl)cc2Cl)cc1` was tested, and the KO/WT growth ratio, higher = selective was 1.05 (inactive). Work on `O=C(CCl)N1N=C(c2ccco2)CC1c1cccs1` (stereo unspecified) yielded a KO/WT growth ratio, higher = selective of 2.05. For `Cc1cc(N=c2c([N+](=O)[O-])nn(-c3ccc4c(c3)OCCO4)n2O)ccc1Br`, the KO/WT growth ratio, higher = selective was 0.974 (inactive). `Cc1ccc(N=c2c([N+](=O)[O-])nn(-c3ccc4c(c3)OCCO4)n2O)cc1F` was tested, and the KO/WT growth ratio, higher = selective was 1.02 (inactive). With `O=C(CCl)NC(Cc1ccccc1)c1ccccc1` (stereo unspecified) the KO/WT growth ratio, higher = selective was 1.07 (inactive). In the case of `Cc1nn(CC(=O)N2CCN(c3cccc(C(F)(F)F)c3)CC2)c(=O)c2cccn12`, the KO/WT growth ratio, higher = selective is reported as 1.09 (inactive). In the case of `CC(C)N(c1ccccc1)c1ccc(NC(=O)CCl)cc1`, the KO/WT growth ratio, higher = selective is reported as 1.07 (inactive). With `O=C(Nc1nc2ccccc2s1)C1c2ccccc2Oc2ccccc21` the KO/WT growth ratio, higher = selective was 1.05 (inactive). For `Cc1ccc(/C=C2\SC(=S)N(CCCC(=O)NC3CCCC3)C2=O)cc1`, the KO/WT growth ratio, higher = selective was 0.962 (inactive). For `Cc1ccc(OCC(=O)c2cc(C)n(-c3ccccc3)c2C)c([N+](=O)[O-])n1`, the KO/WT growth ratio, higher = selective was 0.934 (inactive). In the case of `Cc1ccc(/C=C2/SC(=S)N(CCCC(=O)Nc3ccc(O)cc3)C2=O)cc1`, the KO/WT growth ratio, higher = selective is reported as 1.11 (inactive). With `CCCCC(=O)Nc1cccn2ncnc12` the KO/WT growth ratio, higher = selective was 0.954 (inactive). With `CC(C)n1c(SCC(=O)Nc2nc3c(s2)CCCC3)nc2c1c(=O)n(C)c(=O)n2C` the KO/WT growth ratio, higher = selective was 1.03 (inactive). For `CCOc1ccc(/C=C2\SC(=S)N(CCCC(=O)NCCCN3CCOCC3)C2=O)cc1`, the KO/WT growth ratio, higher = selective was 1.03 (inactive). `CCC(=O)N1CCN(c2ccnc3cc(Cl)ccc23)CC1` was tested, and the KO/WT growth ratio, higher = selective was 1.11 (inactive). `Cc1c(Cl)cccc1N=c1c([N+](=O)[O-])nn(-c2ccc3c(c2)OCCO3)n1O` was tested, and the KO/WT growth ratio, higher = selective was 1.03 (inactive). `Cc1ccc(OCC(=O)c2cc(C)n(Cc3cccs3)c2C)c([N+](=O)[O-])n1` was tested, and the KO/WT growth ratio, higher = selective was 0.969 (inactive). For `NC(=S)NN=C1CCSc2ccc(Cl)cc21`, the KO/WT growth ratio, higher = selective was 1.09 (inactive). In the case of `COc1cc(C2c3cc4c(cc3C(OC3OC5COC(c6cccs6)OC5C(O)C3O)C3COC(=O)C23)OCO4)cc(OC)c1O` (stereo unspecified), the KO/WT growth ratio, higher = selective is reported as 1.2. In the case of `O=C(Nc1cccnc1)c1ccc(C(=O)Nc2cccnc2)cc1`, the KO/WT growth ratio, higher = selective is reported as 1.07 (inactive). With `O=C(NC(NC(=S)N1CCOCC1)C(Cl)(Cl)Cl)c1ccc(Cl)cc1` (stereo unspecified) the KO/WT growth ratio, higher = selective was 1.05 (inactive). `COc1cc2c(cc1OC)C(NC(=O)C(F)(F)F)CNC2=O` (stereo unspecified) showed a KO/WT growth ratio, higher = selective of 1.47.
